Measurements from patent publication US20230226056A1, “[…] FOR PREVENTING OR TREATING SARS-COV-2 INFECTIONS” (priority 2020, published 2023).
Entries after “also recorded” stand apart in the source; their conditions may differ.

Assays:
[1] = target: T1, SARS-CoV-2 Spike S1 protein binding to ACE2-expressing A549 cells (Severe acute respiratory syndrome coronavirus 2, UniProt P0DTC2); assay type: cell-based
T1 construct: the HIS-tagged SARS-Cov2-S1 protein is added to each tube; ACE2: endogenous in A549 cells (ATCC)

[2] = Plasma concentration after oral ectoine in rats; assay type: in vivo; details: 1000 mg/kg
[3] = Osmolarity of ectoine solution; assay type: physicochemical
From the text: An isotonic NaCl solution of 0.9% has an osmolar activity of 286 mOsmol/kg H2O. A 2% ectoine solution has an osmolarity of 147 mOsmol/kg H2O. An isotonic ectoine solution thus has a concentration of 3.89%.

[4] = Oral toxicity; assay type: in vivo
[5] = Maximum solubility of ectoine; assay type: physicochemical
From the text: For a maximally saturated solute solution, concentrations that are just below the solubility limit of the respective solute are preferred. Such a highly concentrated solute solution can be used as a starting solution to prepare the solution required on site. In this way, individual solutions can be diluted depending on the administration required, the patient's condition (existing conditions, age, etc.) and/or desired therapy. This is especially beneficial when not differently concentrated solutions can be stored.

| Structure (SMILES) | Median (background-subtracted fluorescence, Mann Whitney test) [1] | effect on Cov2 S1 protein binding to A549 cells [1] | effect on the binding between Cov2 S1 and the A549 cells [1] | inhibition of the binding of the Cov2 S1 protein to A549 cells [1] | inhibitory effect on Cov2 S1 binding [1] | plasma concentration [2] | osmolarity ([3]; 2% ectoine solution) | concentration of an isotonic ectoine solution ([3]; relative to isotonic 0.9% NaCl, 286 mOsmol/kg H2O) | NOAL [4] | bound viral Cov2 S1 protein on the cell surface [1] | fluorescence of the Cov2 S1 protein bound to A549 cells [1] | maximum solubility ([5]; 25° C.) | maximum solubility ([5]; 40° C.) |
| --- | --- | --- | --- | --- | --- | --- | --- | --- | --- | --- | --- | --- | --- |
| CC(=O)NCC[C@H](N)C(=O)O [NADA, Nγ-Acetyl-L-2,4-diaminobutyric acid, reference compound] | 1.820, n = 4 | no effect | No effect | no inhibition; also recorded: little inhibition; also recorded: no significant effect | comparable to untreated cells | – | – | – | – | – | – | – | – |
| CC1=N[C@H](C(=O)O)CCN1 [ectoine, (4S)-2-Methyl-1,4,5,6-tetrahydropyrimidine-4-carbon acid] | 0.3050, n = 4 | – | – | complete inhibition; also recorded: positive effect | significant | 99 µg/mL | 147 mOsmol/kg H2O | 3.89% | 2000 mg/kg body weight/day | less or no bound viral Cov2 S1 protein | lower fluorescence | about 550 g/L | about 620 g/L |
